Test results from US20110230430A1, “SAPONIN EXTRACT FROM SAPONARIA SPP. AND USES THEREOF” (NATIONAL RESEARCH COUNCIL OF CANADA, priority 2008, published 2011).

Tests used:
PC-3 cells = assay: Dual Sensor: MitoCasp Assay in PC-3 prostate cancer cells; type: cell-based, human
Source text: (§1) Techniques to assay enzymatic and signaling processes involved in apoptosis have been developed as standard protocols. One example of an early step in apoptosis, is the release of cytochrome C from mitochondria and the activation of caspase-3. Induction of the caspases (a series of cytosolic proteases) is one of the most consistently observed features of apoptosis. Caspases are a family of proteolytic enzymes that transmit the apoptotic signal using a proteolytic cascade. […] Caspases 3 and 7 are effector caspases, central to the caspase cascade pathways. In particular, caspase-3 plays a central role in the process. When caspases are activated, they cleave target proteins; one of the most important of these is poly-(ADP-ribose) polymerase (PARP), which is a protein located in the nucleus. Therefore, assays detecting release of cytochrome C, detecting caspase-3 activity and detecting PARP degradation are effective determinants of apoptosis. The loss of mitochondrial membrane potential is known to occur during apoptosis. To analyze mitochondrial membrane potential, a cationic dye may be used which accumulates in the mitochondria of healthy cells. Collapse of the mitochondrial membrane potential during apoptosis prevents the dye from accumulating in the mitochondria resulting in a decrease in fluorescent intensity that can be detected with flow cytometry. Dual Sensor: MitoCasp™ (Cell Technology) used herein in the Examples is an assay that measures caspase 3/7 activity and cells with decreased mitochondrial membrane potential. In this assay, caspase 3/7 activity is detected using a cell permeable carboxyfluorescein labeled caspase inhibitor, which binds covalently to active caspases 3 and 7. Cells that contain bound inhibitor are detected by an increase in fluorescence when samples are analyzed by flow cytometry.
PC-3 cells (ATCC #CRL-1435) were derived from a prostate adenocarcinoma (Kaighn et al., 1979). They were maintained in RPMI 1640 medium (Gibco) supplemented with 10% fetal bovine serum (Cansera), 100 U/mL penicillin, and 100 μg/mL streptomycin and 0.25 μg/mL amphotericin B. Cultures were maintained in medium at 37° C. with 5% CO2 and 100% relative humidity.
To harvest adherent cells, the existing medium was removed and cells were dissociated with 0.25% (w/v) trypsin-EDTA·4Na in Hank's Balanced Salt Solution (Gibco). To block the proteolytic action of the trypsin, the cells were resuspended in an excess of media containing fetal bovine serum. Cells were transferred to a 15 mL conical centrifuge tube and pelleted by centrifugation at 500×g for 5 min. Cell pellets were resuspended in media, and an aliquot of the cells were seeded into a new flask.
PC-3 cells were seeded in tissue culture flasks with regular growth medium and maintained under normal conditions. […] Following incubation under normal growth conditions for the specified time, cells were washed once with cold phosphate-buffered saline (PBS) (137 mM NaCl, 2.7 mM KCl, 4.3 mM Na2HPO4.7H2O, 1.4 mM KH2PO4) and harvested as previously described. Assays were carried out according to instructions given in kits. All Flow Cytometry was performed using a Coulter Epics XL (Beckman).
(§2) Following centrifugation at 500×g for 5 min, cell pellets were resuspended in PBS at 3.3×10^6 cells/mL. 300 μL cell suspension was mixed with 10 μL each of 30X Mitochondria Membrane Potential Dye and 30X Caspase 3/7 detection reagent. Following incubation for 60 min under normal growth conditions, cells were washed twice with 1× wash buffer and resuspended in 0.5 mL 1× wash buffer. Samples were analyzed by flow cytometry measuring the fluorescence emissions from 515 nm to 530 nm for caspase detection, and 574 nm to 600 nm for mitochondrial membrane potential detection.

MDA-MB-231 cells = assay: Dual Sensor: MitoCasp Assay in MDA-MB-231 breast cancer cells; type: cell-based, human
Source text: as §1, §2
The MDA-MB-231 cell line (ATCC #HTB-26) was derived from the pleural effusion of a patient with a breast adenocarcinoma (Cailleau et al., 1974). The cells were maintained in RPMI 1640 (Gibco) supplemented with 10% fetal bovine serum (Camera), 100 U/mL penicillin, 100 μg/mL streptomycin and 0.25 μg/mL amphotericin B. Cultures were maintained in medium at 37° C. with 5% CO2 and 100% relative humidity. […]

CRL-2522 cells = assay: Dual Sensor: MitoCasp Assay in CRL-2522 normal fibroblast cells; type: cell-based, human
Source text: as §1, §2
CRL-2522 cells, acquired from ATCC, (American Type Culture Collection) are normal fibroblast cells that originated from human foreskin. CRL-2522 cells were maintained in RPMI 1640 medium (Gibco) supplemented with 10% fetal bovine serum (Cansera), 100 U/mL penicillin, 100 μg/mL streptomycin and 0.25 μg/mL amphotericin B. Cultures were maintained in medium at 37° C. with 5% CO2 and 100% relative humidity. […]

HT-29 cancer cells = assay: Dual Sensor: MitoCasp Assay in HT-29 colon cancer cells; type: cell-based, human; settings: HT-29 cells, 2.5 μM, 24 hours
Source text: as §1, with “To analyze mitochondrial membrane potential, a cationic dye may be used which accumulates in the mitochondria of healthy cells.” left out, “Dual Sensor: MitoCasp™ (Cell Technology) used herein in the Examples is an assay that measures caspase 3/7 activity and cells with decreased mitochondrial membrane potential.” left out
Following PC1448 treatment, adherent and non-adherent cells were harvested and washed with cold PBS. […] Samples were analyzed by flow cytometry measuring the fluorescence emissions from 515 nm to 530 nm for caspase detection, and 574 nm to 600 nm for mitochondrial membrane potential detection. […]
HT-29 cancer cells were treated with 2.5 μM, 5.0 μM and 10 μM of PC1526 or PC1448 for 23 hours, or with 2.5 μM, 5.0 μM and 10 μM PC1422 for 24 hours and assessed using the Dual Sensor: MitoCasp™ Assay. […]

[1] = Haemolytic properties of selected saponins; settings: saponins purified to more than 75%
Source text: The haemolytic properties of the various saponins that have been purified to more than 75% have been examined and are provided in Table 39. Haemolytic properties are not directly related to anti-cancer or apoptosis inducing properties of saponins but may be related to toxicity and utility of the saponins for preparation of injectable formulations. Saponins most suitable for injectable formulation will be less haemolytic. QS21, a purified Quillaja saponaria saponin with known haemolytic activity is used as reference.

MCF-7 cells = assay: Dual Sensor: MitoCasp Assay in MCF-7 breast cancer cells; type: cell-based, human; settings: 5 and 10 μM, 24 hours
Source text: Techniques to assay enzymatic and signaling processes involved in apoptosis have been developed as standard protocols. One example of an early step in apoptosis, is the release of cytochrome C from mitochondria and the activation of caspase-3. Induction of the caspases (a series of cytosolic proteases) is one of the most consistently observed features of apoptosis. Caspases are a family of proteolytic enzymes that transmit the apoptotic signal using a proteolytic cascade. […] Caspases 3 and 7 are effector caspases, central to the caspase cascade pathways. In particular, caspase-3 plays a central role in the process. […] Collapse of the mitochondrial membrane potential during apoptosis prevents the dye from accumulating in the mitochondria resulting in a decrease in fluorescent intensity that can be detected with flow cytometry. […] In this assay, caspase 3/7 activity is detected using a cell permeable carboxyfluorescein labeled caspase inhibitor, which binds covalently to active caspases 3 and 7. Cells that contain bound inhibitor are detected by an increase in fluorescence when samples are analyzed by flow cytometry. […]
MCF-7 cells were treated with 5.0 μM and 10 μM of saponins PC1526, PC1464 and PC1422 for 24 hours and assessed using Dual Sensor: MitoCasp™ Assay.

[2] = tested on: PC-3, MDA-MB-231, WiDr, and HT-29 Cells; assay: Order of apoptosis potency across cancer cell lines; parameters: species or system human; settings: rank based on responses observed in PC-3, MDA-MB-231, WiDr, and HT-29 Cells; 1 = most active
[3] = CRL-2522 cells, 2.5 μM PC1380, 32 hr
[4] = CRL-2522 cells, 5.0 μM PC1380, 32 hr
[5] = CRL-2522 cells, 10.0 μM PC1380, 32 hr
[6] = CRL-2522 cells, 15.0 μM PC1380, 32 hr
[7] = 5.0 μM saponin, 36 hours (comparison of saponins)
[8] = CRL-2522 cells, 2.5 μM PC1422, 36 hr
[9] = CRL-2522 cells, 5.0 μM PC1422, 36 hr
[10] = CRL-2522 cells, 10.0 μM PC1422, 36 hr
[11] = CRL-2522 cells, 15.0 μM PC1422, 36 hr

## CC1OC(OC(=O)C23CCC(C)(C)CC2C2=CCC4C5(C)CCC(OC6OC(C(=O)O)C(O)C(O)C6OC6OC(CO)C(O)C(O)C6O)C(C)(C=O)C5CCC4(C)C2(C)CC3O)C(OC2OC(C)C(OC3OCC(O)C(O)C3O)C(O)C2O)C(OC2OC(CO)C(O)C2O)C1O (centres unmarked) [PC1380]
PC-3 cells; 2.5 μM PC1380, 35 hr
  Cells with caspase 3/7 activity: 11.4%
  Cells with decreased mitochondrial membrane potential: 5.8%
PC-3 cells; 5.0 μM PC1380, 35 hr
  Cells with caspase 3/7 activity: 15.3%
  Cells with decreased mitochondrial membrane potential: 7.1%
PC-3 cells; 10.0 μM PC1380, 35 hr
  Cells with caspase 3/7 activity: 14.9%
  Cells with decreased mitochondrial membrane potential: 8.7%
PC-3 cells; 15.0 μM PC1380, 35 hr
  Cells with caspase 3/7 activity: 31.8%
  Cells with decreased mitochondrial membrane potential: 15.9%
PC-3 cells; PC1380 15.0-2.5 μM, 35 hours
  Cells with Caspase 3/7 activity and decreased mitochondrial membrane potential vs untreated (in words): small increase
MDA-MB-231 cells; 2.5 μM PC1380, 34 hr
  Cells with caspase 3/7 activity: 6.2%
  Cells with decreased mitochondrial membrane potential: 3.2%
MDA-MB-231 cells; 5.0 μM PC1380, 34 hr
  Cells with caspase 3/7 activity: 8.0%
  Cells with decreased mitochondrial membrane potential: 4.7%
MDA-MB-231 cells; 10.0 μM PC1380, 34 hr
  Cells with caspase 3/7 activity: 9.4%
  Cells with decreased mitochondrial membrane potential: 6.6%
MDA-MB-231 cells; 15.0 μM PC1380, 34 hr
  Cells with caspase 3/7 activity: 7.9%
  Cells with decreased mitochondrial membrane potential: 4.3%
MDA-MB-231 cells; PC1380 15.0-2.5 μM, 34 hours
  Apoptosis activity (in words): no significant apoptosis activity
CRL-2522 cells; [3]
  Cells with caspase 3/7 activity: 0.4%
  Cells with decreased mitochondrial membrane potential: 1.8%
CRL-2522 cells; [4]
  Cells with caspase 3/7 activity: 1.0%
  Cells with decreased mitochondrial membrane potential: 4.0%
CRL-2522 cells; [5]
  Cells with caspase 3/7 activity: 1.2%
  Cells with decreased mitochondrial membrane potential: 2.6%
CRL-2522 cells; [6]
  Cells with caspase 3/7 activity: 0.9%
  Cells with decreased mitochondrial membrane potential: 4.5%
CRL-2522 cells; CRL-2522 cells, PC1380 15.0-2.5 μM, 32 hours
  Apoptosis (in words): no significant apoptosis
HT-29 cancer cells; 5.0 μM, 10 μM and 15 μM
  Induction of apoptosis (in words, FIG. 6): does not induce apoptosis

## QS21 [reference compound]
[1]
  HD50: 7.5 µM

## Vaccaroside E [PC1422]
PC-3 cells; 2.5 μM PC1422, 36 hr
  Cells with caspase 3/7 activity: 42.2%
  Cells with decreased mitochondrial membrane potential: 23.6%
PC-3 cells; 5.0 μM PC1422, 36 hr
  Cells with caspase 3/7 activity: 49.1%
  Cells with decreased mitochondrial membrane potential: 30.0%
PC-3 cells; 10.0 μM PC1422, 36 hr
  Cells with caspase 3/7 activity: 55.7%
  Cells with decreased mitochondrial membrane potential: 53.7%
PC-3 cells; 15.0 μM PC1422, 36 hr
  Cells with caspase 3/7 activity: 57.1%
  Cells with decreased mitochondrial membrane potential: 53.3%
PC-3 cells; 36 hours
  Concentration of greatest effect on apoptosis: above 10 μM
  Induction of apoptosis at concentrations as low as: 2.5 µM
MDA-MB-231 cells; 2.5 μM PC1422, 36 hr
  Cells with caspase 3/7 activity: 21.1%
  Cells with decreased mitochondrial membrane potential: 13.7%
MDA-MB-231 cells; 5.0 μM PC1422, 36 hr
  Cells with caspase 3/7 activity: 32.2%
  Cells with decreased mitochondrial membrane potential: 32.9%
MDA-MB-231 cells; [7]
  Cells with caspase 3/7 activity: 41.2%
  Cells with decreased mitochondrial membrane potential: 21.7%
MDA-MB-231 cells; 10.0 μM PC1422, 36 hr
  Cells with caspase 3/7 activity: 41.6%
  Cells with decreased mitochondrial membrane potential: 46.0%
MDA-MB-231 cells; 15.0 μM PC1422, 36 hr
  Cells with caspase 3/7 activity: 26.7%
  Cells with decreased mitochondrial membrane potential: 65.2%
MDA-MB-231 cells; 36 hours
  Concentration of greatest effect on apoptosis: 15 µM
  Induction of apoptosis at concentrations as low as: 2.5 µM
CRL-2522 cells; [8]
  Cells with caspase 3/7 activity: 3.1%
  Cells with decreased mitochondrial membrane potential: 3.4%
CRL-2522 cells; [9]
  Cells with caspase 3/7 activity: 15.3%
  Cells with decreased mitochondrial membrane potential: 5.1%
CRL-2522 cells; [10]
  Cells with caspase 3/7 activity: 12.8%
  Cells with decreased mitochondrial membrane potential: 19.2%
CRL-2522 cells; [11]
  Cells with caspase 3/7 activity: 7.3%
  Cells with decreased mitochondrial membrane potential: 26.2%
CRL-2522 cells; CRL-2522 cells, PC1422 15.0-2.5 μM, 36 hours
  Cells with Caspase 3/7 activity and decreased mitochondrial membrane potential vs untreated (in words): modest increase
CRL-2522 cells; fibroblast cell line CRL-2522, summary of the Examples
  Apoptosis in non-cancerous cell line (summary in words): no or little apoptosis
HT-29 cancer cells; 5.0 μM and 10 μM
  Caspase 3/7 activity compared to untreated cells / induction of apoptosis (in words, FIG. 5): increase in caspase 3/7 activity
MCF-7 cells
  Induction of apoptosis (in words, FIG. 16): do not induce apoptosis
[1]
  HD50: 43.8 µM
[2]
  Order of Apoptosis Potency: 4
